Structures can show the parent of a compound that is named as a salt. Where two headings read alike, the source gives them in different places.
Tests used:
Assay type in all cases: biochemical
recombinant PRL-2 = target: T1, recombinant PRL-2 (Homo sapiens, UniProt Q12974); assay: In vitro phosphatase assay (DiFMUP hydrolysis), PRL-2;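 also: PRL-2 activity read as DiFMUP hydrolysis after 20 min at room temperature with drug, enzyme first pre-reduced at 4 °C for 20 min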
T1 construct: 6xHis (N, cleaved yes); made in house; host or cells: E. coli One Shot BL21 Star
T1 sequence (Q12974 1-167): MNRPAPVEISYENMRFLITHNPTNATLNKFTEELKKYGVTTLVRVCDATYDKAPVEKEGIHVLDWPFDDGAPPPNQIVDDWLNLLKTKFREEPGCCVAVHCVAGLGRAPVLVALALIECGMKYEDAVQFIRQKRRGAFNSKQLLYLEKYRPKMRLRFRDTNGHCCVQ

recombinant PRL-1 = target: T2, recombinant PRL-1 (Homo sapiens, UniProt Q93096); assay: In vitro phosphatase assay (DiFMUP hydrolysis), PRL-1; also: test concentration or dose not given here
T2 construct: 6xHis (N, cleaved yes); made in house; host or cells: E. coli One Shot BL21 Star
T2 sequence (Q93096 1-173): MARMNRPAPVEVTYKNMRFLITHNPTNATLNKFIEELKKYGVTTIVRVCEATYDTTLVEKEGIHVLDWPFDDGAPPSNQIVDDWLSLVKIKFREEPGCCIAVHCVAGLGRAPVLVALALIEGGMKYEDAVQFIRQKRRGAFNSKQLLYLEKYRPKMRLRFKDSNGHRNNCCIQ

recombinant PRL-3 = target: T3, recombinant PRL-3 (Homo sapiens, UniProt O75365); assay: In vitro phosphatase assay (DiFMUP hydrolysis), PRL-3; also: test concentration or dose not given here
T3 construct: 6xHis (N, cleaved yes); made in house; host or cells: E. coli One Shot BL21 Star
T3 sequence (O75365 whole entry): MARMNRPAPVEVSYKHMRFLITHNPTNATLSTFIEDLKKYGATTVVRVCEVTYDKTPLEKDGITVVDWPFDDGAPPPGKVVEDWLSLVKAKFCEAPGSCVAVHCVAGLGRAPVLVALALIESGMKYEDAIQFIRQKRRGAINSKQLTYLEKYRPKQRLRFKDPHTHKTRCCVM

[1] = FDA-approved drug screen, activity compared to DMSO
[2] = FDA-approved drug screen, compared to DMSO

Row | SMILES | % Phosphatase Activity (compared to DMSO) PRL-2 (recombinant PRL-2; [2]) [%] | % Phosphatase Activity (compared to DMSO) PRL-1 (recombinant PRL-1; [2]) [%] | % Phosphatase Activity (compared to DMSO) PRL-3 (recombinant PRL-3; [2]) [%] | other results
1 | CC(C)Nc1cc(-c2c[nH]c(C(=O)N[C@H](CO)c3cccc(Cl)c3)c2)c(Cl)cn1 [Ulixertinib (BVD-523, VRT752271)] |  |  |  | % Phosphatase Activity (compared to DMSO) PRL-2 (recombinant PRL-2; [1]): 90%; % Phosphatase Activity (compared to DMSO) PRL-1 (recombinant PRL-1; [1]): 99%; % Phosphatase Activity (compared to DMSO) PRL-3 (recombinant PRL-3; [1]): 105%
2 | NC(=O)Cc1cccc(C(=O)c2ccccc2)c1N [Nepafenac] | 93 | 96 | 72 | 
3 | COc1cc2c(cc1OC)CN(CCc1ccc(NC(=O)c3cccc4c(=O)c5cccc(OC)c5[nH]c34)cc1)CC2 [Elacridar (GF120918)] | 104 | 106 | 100 | 
4 | CC(C)c1cc(C(=O)N2Cc3ccc(CN4CCN(C)CC4)cc3C2)c(O)cc1O [AT13387] | 100 | 98 | 82 | 
5 | NC(=O)C(c1ccccc1)(c1ccccc1)[C@@H]1CCN(CCc2ccc3c(c2)CCO3)C1 [Darifenacin HBr] |  |  |  | % Phosphatase Activity (compared to DMSO) PRL-2 (recombinant PRL-2): 102%; % Phosphatase Activity (compared to DMSO) PRL-1 (recombinant PRL-1): 100%; % Phosphatase Activity (compared to DMSO) PRL-3 (recombinant PRL-3): 87%
6 | CNCC(=O)c1ccc(O)c(O)c1.Cl [Adrenalone HCl] | 91 | 91 | 72 | 
7 | CC(NC(C)(C)C)C(=O)c1cccc(Cl)c1.Cl (stereo not drawn) [Amfebutamone HCl] | 110 | 102 | 77 | 
8 | NS(=O)(=O)NCCNc1nonc1/C(=N/O)Nc1ccc(F)c(Br)c1 [Epacadostat (INCB024360)] | 98 | 111 | 95 | 
9 | O=C1CCc2cc(OCCCCc3nnnn3C3CCCCC3)ccc2N1 [Cilostazol] | 83 | 88 | 69 | 
10 | NC(=O)c1ccc(I)c([N+](=O)[O-])c1 [Iniparib (BSI-201)] | 112 | 107 | 78 | 
11 | CCC(C)(C)c1ccc(CC(C)CN2C[C@@H](C)O[C@@H](C)C2)cc1 (stereo partly drawn) [Amorolfine HCl] | 94 | 102 | 78 | 
12 | CCOC(=O)N1CCC(=C2c3ccc(Cl)cc3CCc3cccnc32)CC1 [Loratadine] | 90 | 89 | 65 | 
13 | Cc1ccc(F)c(NC(=O)Nc2ccc(-c3cccc4[nH]nc(N)c34)cc2)c1 [Linifanib (ABT-869)] | 151 | 133 | 133 | 
14 | C[N+](C)(CCOc1ccccc1)Cc1ccccc1.O=C([O-])c1cc2ccccc2cc1O [Bephenium Hydroxynaphthoate] | 103 | 108 | 92 | 
15 | Cc1cccc(Cc2c[nH]cn2)c1C [Detomidine HCl] | 107 | 88 | 81 | 
16 | C[C@H](CCC(=O)O)[C@H]1CC[C@H]2[C@@H]3[C@H](O)C[C@@H]4C[C@H](O)CC[C@]4(C)[C@H]3CC[C@]12C [Chenodeoxycholic Acid] | 102 | 87 | 115 | 
17 | CO[C@H]1C[C@@H]2CC[C@@H](C)[C@@](O)(O2)C(=O)C(=O)N2CCCC[C@H]2C(=O)O[C@H]([C@H](C)C[C@@H]2CC[C@@H](OC(=O)C(C)(CO)CO)[C@H](OC)C2)CC(=O)[C@H](C)/C=C(\C)[C@@H](O)[C@@H](OC)C(=O)[C@H](C)C[C@H](C)/C=C/C=C/C=C/1C [Temsirolimus (CCI-779, NSC 683864)] |  |  |  | % Phosphatase Activity (compared to DMSO) PRL-2 (recombinant PRL-2; [1]): 111%; % Phosphatase Activity (compared to DMSO) PRL-1 (recombinant PRL-1; [1]): 96%; % Phosphatase Activity (compared to DMSO) PRL-3 (recombinant PRL-3; [1]): 91%

Row | SMILES | % Phosphatase Activity (compared to DMSO) PRL-2 (recombinant PRL-2; [2]) [%] | % Phosphatase Activity (compared to DMSO) PRL-1 (recombinant PRL-1; [2]) [%] | % Phosphatase Activity (compared to DMSO) PRL-3 (recombinant PRL-3; [2]) [%] | other results
18 | CC(C)OC(=O)C(C(=O)OC(C)C)=C1SC=CS1 [Malotilate] | 58 | 70 | 61 | 
19 | Cc1onc(-c2ccccc2)c1C(=O)N[C@@H]1C(=O)N2[C@@H]1SC(C)(C)[C@@H]2C(=O)[O-].O.[Na+] [Oxacillin sodium monohydrate] | 90 | 98 | 83 | 
20 | Cc1ccc(S(=O)(=O)Nc2nc3ccccc3nc2Nc2ccc3nsnc3c2)cc1 [Pilaralisib (XL147)] | 65 | 94 | 98 | 
21 | Clc1ccc(COC(Cn2ccnc2)c2ccc(Cl)cc2Cl)cc1 (stereo not drawn) [Econazole nitrate] | 103 | 107 | 93 | 
22 | CC(=O)Nc1ccccc1 [Acetanilide] | 110 | 110 | 81 | 
23 | NC(=O)c1cn(Cc2c(F)cccc2F)nn1 [Rufinamide] | 91 | 91 | 77 | 
24 | FC(F)(F)c1ccc(CNc2ccc(Cc3c[nH]c4ncc(Cl)cc34)cn2)cn1 [Pexidartinib (PLX3397)] | 100 | 102 | 101 | 
25 | COc1ccc(CN=c2[nH]c(N3CCC[C@H]3CO)ncc2C(=O)NCc2ncccn2)cc1Cl [Avanafil] | 112 | 98 | 97 | 
26 | CN(C)Cc1ccc(S(=O)(=O)n2ccc(/C=C/C(=O)NO)c2)cc1 [Resminostat] | 113 | 102 | 90 | 
27 | CCCCC[C@H](O)/C=C/[C@H]1[C@H](O)CC(=O)[C@@H]1CCCCCCC(=O)O [Alprostadil] | 113 | 117 | 98 | 
28 | CC(=O)[C@H]1CC[C@H]2[C@@H]3CCC4=CC(=O)CC[C@]4(C)[C@H]3CC[C@]12C [Progesterone] | 96 | 90 | 76 | 
29 | CC(C[N+](C)(C)C)OC(N)=O (stereo not drawn) [Bethanechol chloride] | 119 | 104 | 77 | 
30 | CCC1(c2cnc[nH]2)Cc2ccccc2C1 [Atipamezole] | 109 | 94 | 87 | 
31 | Cc1cc(NS(=O)(=O)c2ccc(N)cc2)no1 [Sulfamethoxazole] |  |  |  | % Phosphatase Activity (compared to DMSO) PRL-2 (recombinant PRL-2): 96%; % Phosphatase Activity (compared to DMSO) PRL-1 (recombinant PRL-1): 91%; % Phosphatase Activity (compared to DMSO) PRL-3 (recombinant PRL-3): 86%
32 | NC(=O)CN1CC(O)CC1=O (stereo not drawn) [Oxiracetam] | 122 | 94 | 71 | 
33 | NC(=O)c1cccnc1 [Nicotinamide (Vitamin B3)] | 95 | 88 | 98 | 
34 | NS(=O)(=O)Cc1noc2ccccc12 [Zonisamide] |  |  |  | % Phosphatase Activity (compared to DMSO) PRL-2 (recombinant PRL-2; [1]): 89%; % Phosphatase Activity (compared to DMSO) PRL-1 (recombinant PRL-1; [1]): 104%; % Phosphatase Activity (compared to DMSO) PRL-3 (recombinant PRL-3; [1]): 78%
